Read-outs that look alike come from different tables or passages of the source.
Legend:
Type in all cases: cell-based
[1] = tested on: 15-PGDH luciferase fusion construct in Vaco503 reporter cell line; assay: 15-PGDH-luciferase fusion gene reporter induction, V503 cells
[2] = tested on: 15-PGDH luciferase fusion construct in LS174T reporter cell line; assay: 15-PGDH-luciferase fusion gene reporter induction, LS174T cells; conditions: Homo sapiens
[3] = tested on: 15-PGDH luciferase fusion construct in V9m reporter cell line; assay: 15-PGDH-luciferase fusion gene reporter induction, V9m cells
[4] = read-out: V503 reporter activity ([…]), […], % increased luciferase activity over basal level, read-out: V503 reporter activity (2.5 uM)
[5] = read-out: V503 reporter activity ([…]), […], % increased luciferase activity over basal level, read-out: V503 reporter activity (7.5 uM)
[6] = read-out: LS174T reporter activity ([…]), […], % increased luciferase activity over basal level, read-out: LS174T reporter activity (2.5 uM)
[7] = read-out: LS174T reporter activity ([…]), […], % increased luciferase activity over basal level, read-out: LS174T reporter activity (7.5 uM)
[8] = read-out: V9M reporter activity ([…]), […], % increased luciferase activity over basal level, 100 = doubling, read-out: V9M reporter activity (2.5 uM)
[9] = read-out: V9M reporter activity ([…]), […], % increased luciferase activity over basal level, 100 = doubling, read-out: V9M reporter activity (7.5 uM)
[10] = read-out: V503 reporter activity ([…]), […], % induction over basal level, Table 17, read-out: V503 reporter activity (2.5 μM)
[11] = read-out: V503 reporter activity ([…]), […], % induction over basal level, Table 17, read-out: V503 reporter activity (7.5 μM)
[12] = read-out: LS174T reporter activity ([…]), […], % induction over basal level, Table 17, read-out: LS174T reporter activity (2.5 μM)
[13] = read-out: lS174T reporter activity ([…]), […], % induction over basal level, Table 17, read-out: lS174T reporter activity (7.5 μM)
[14] = read-out: V9M reporter activity ([…]), […], % induction of luciferase activity over basal level, Table 17, read-out: V9M reporter activity (2.5 μM)
[15] = read-out: V9M reporter activity ([…]), […], % induction over basal level, Table 17, read-out: V9M reporter activity (7.5 μM)
[16] = read-out: V503-3H9-7 reporter activity, % ([…]), […], Table 18, read-out: V503-3H9-7 reporter activity, % (2.5 μM)
[17] = read-out: V503-3H9-7 reporter activity, % ([…]), […], Table 18, read-out: V503-3H9-7 reporter activity, % (7.5 μM)
[18] = read-out: Ls174T-SC1 reporter activity, % ([…]), […], Table 18, read-out: Ls174T-SC1 reporter activity, % (2.5 μM)
[19] = read-out: Ls174T-SC1 reporter activity, % ([…]), […], Table 18, read-out: Ls174T-SC1 reporter activity, % (7.5 μM)
[20] = read-out: V9M-SC3 Reporter activity ([…]) (%), […], Table 18, read-out: V9M-SC3 Reporter activity (2.5 μM) (%)
[21] = read-out: V503-3H9-7 reporter activity, % ([…]), V503 reporter cells, […] compound, % induction of luciferase activity over basal level, read-out: V503-3H9-7 reporter activity, % (2.5 μM)
[22] = read-out: V503-3H9-7 reporter activity, % ([…]), V503 reporter cells, […] compound, % induction of luciferase activity over basal level, read-out: V503-3H9-7 reporter activity, % (7.5 μM)
[23] = read-out: Ls174T-SC1 reporter activity, % ([…]), LS174T reporter cells, […] compound, % induction of luciferase activity over basal level, read-out: Ls174T-SC1 reporter activity, % (2.5 μM)
[24] = read-out: Ls174T-SC1 reporter activity, % ([…]), LS174T reporter cells, […] compound, % induction of luciferase activity over basal level, read-out: Ls174T-SC1 reporter activity, % (7.5 μM)
[25] = read-out: V9M-SC3 Reporter activity ([…]) (%), V9m reporter cells, […] compound, % induction of luciferase activity over basal level, read-out: V9M-SC3 Reporter activity (2.5 μM) (%)
[26] = read-out: V9M-SC3 Reporter activity ([…]), %, V9m reporter cells, […] compound, % induction of luciferase activity over basal level, read-out: V9M-SC3 Reporter activity (7.5 μM), %

CCCCS(=O)(=O)c1sc2nc(-c3cccs3)cc(-c3ccccc3)c2c1N [SW208078, 2-(butylsulfonyl)-4-phenyl-6-(thiophen-2-yl)thieno[2,3-b]pyridin-3-amine]
activation at […] [1, 4]: 87.7%
activation at […] [1, 5]: 83.8%
activation at […] [2, 6]: 72.7%
activation at […] [2, 7]: 40%
activation at […] [3, 8]: 36.2%
activation at […] [3, 9]: 34.9%

COc1ccc(OC)c(N(CC(=O)Nc2ccccc2Br)S(=O)(=O)c2ccc(OC)c(OC)c2)c1 [compound 924740]
activation at […] [1, 10]: 20.2%
activation at […] [1, 11]: 52.2%
activation at […] [2, 12]: 7.69%
activation at […] [2, 13]: 16.7%
activation at […] [3, 14]: -0.54%
activation at […] [3, 15]: 6.33%

COc1ccc(OC)c(N(CC(=O)Nc2cccnc2)S(=O)(=O)c2ccc(C)cc2)c1 [505072−23−1]
activation at […] [1, 16]: 242%
activation at […] [1, 17]: 239%
activation at […] [2, 18]: 101%
activation at […] [2, 19]: 109%
activation at […] [3, 20]: 94.7%

COc1ccc(OC)c(N(CC(=O)Nc2cccnc2)S(=O)(=O)c2ccc(OC)c(OC)c2)c1 [680599−58−0]
activation at […] [1, 16]: 16.7%
activation at […] [1, 17]: 28.9%
activation at […] [2, 18]: 11.5%
activation at […] [2, 19]: -13.8%
activation at […] [3, 20]: -5.29%

COc1ccc(OC)c(N(CC(=O)OC(C)(C)C)S(=O)(=O)c2ccccc2)c1 [SW202979]
activation at […] [1, 21]: 41.6%
activation at […] [1, 22]: 133%
activation at […] [2, 23]: -8.92%
activation at […] [2, 24]: 17.8%
activation at […] [3, 25]: -14.4%
activation at […] [3, 26]: 10.8%

COC(=O)CN(c1cc(OC)ccc1OC)S(=O)(=O)c1ccccc1 [SW202980]
activation at […] [1, 21]: 11.4%
activation at […] [1, 22]: 50.6%
activation at […] [2, 23]: -7.34%
activation at […] [2, 24]: 5.17%
activation at […] [3, 25]: -27.6%
activation at […] [3, 26]: -13.4%

CCCNC(=O)c1sc2nc(-c3cccs3)cc(-c3ccccc3)c2c1N [SW206977, 3-amino-4-phenyl-N-propyl-6-(thiophen-2-yl)thieno[2,3-b]pyridine-2-carboxamide]
activation at […] [1, 4]: 33%
activation at […] [1, 5]: 37.6%
activation at […] [2, 6]: 34.9%
activation at […] [2, 7]: 29.4%
activation at […] [3, 8]: 3.5%
activation at […] [3, 9]: 0.45%

COc1ccc(OC)c(N(CC(=O)N(C)c2cccnc2)S(=O)(=O)c2ccccc2)c1 [SW203686]
activation at […] [1, 21]: -11%
activation at […] [1, 22]: 65.6%
activation at […] [2, 23]: 116%
activation at […] [2, 24]: 28.5%
activation at […] [3, 25]: 15.1%
activation at […] [3, 26]: 30.3%

COc1ccc(OC)c(N(CC(=O)N2CCc3ccccc32)S(=O)(=O)c2ccccc2)c1 [SW208003]
activation at […] [1, 21]: 117%
activation at […] [1, 22]: 75.9%
activation at […] [2, 23]: 37%
activation at […] [2, 24]: 45.6%
activation at […] [3, 25]: 13.3%
activation at […] [3, 26]: -11.5%

O=C(CN(c1ccccn1)S(=O)(=O)c1ccccc1)Nc1ccccc1 [compound 543512]
activation at […] [1, 10]: -4.56%
activation at […] [1, 11]: -4.26%
activation at […] [2, 12]: 18.1%
activation at […] [2, 13]: 8.33%
activation at […] [3, 14]: 36.8%
activation at […] [3, 15]: 79.6%

O=C(CN(c1cc(Cl)ccc1Cl)S(=O)(=O)c1ccccc1)Nc1cccnc1 [833428−03−8]
activation at […] [1, 16]: 96.4%
activation at […] [1, 17]: 150%
activation at […] [2, 18]: 25.1%
activation at […] [2, 19]: 47.4%
activation at […] [3, 20]: -4.1%

COc1ccc(OC)c(N(CC(=O)Nc2cccnc2)C(C)=O)c1 [SW202952]
activation at […] [1, 21]: 26.2%
activation at […] [1, 22]: 7.16%
activation at […] [2, 23]: -10.3%
activation at […] [2, 24]: 10.6%
activation at […] [3, 25]: -20.7%
activation at […] [3, 26]: -19.5%

COc1ccc(OC)c(N(CC(=O)Nc2cccnc2)S(=O)(=O)c2ccccc2F)c1 [SW202947]
activation at […] [1, 21]: 143%
activation at […] [1, 22]: 97.8%
activation at […] [2, 23]: 52%
activation at […] [2, 24]: 21.2%
activation at […] [3, 25]: 21.9%
activation at […] [3, 26]: 2.57%

COc1ccccc1N(CC(=O)Nc1cccnc1)S(=O)(=O)c1ccccc1 [367929−80−4]
activation at […] [1, 16]: -0.87%
activation at […] [1, 17]: -6.22%
activation at […] [2, 18]: 18.8%
activation at […] [2, 19]: -18%
activation at […] [3, 20]: -27.8%

CCCCCC[S+]([O-])c1sc2nc(-c3cccs3)cc(-c3ccccc3)c2c1N (stereo not shown) [SW208081, 2-(hexylsulfinyl)-4-phenyl-6-(thiophen-2-yl)thieno[2,3-b]pyridin-3-amine]
activation at […] [1, 4]: 90.5%
activation at […] [1, 5]: 105%
activation at […] [2, 6]: 64.5%
activation at […] [2, 7]: 95.1%
activation at […] [3, 8]: 37.8%
activation at […] [3, 9]: 63.6%

COc1ccc(OC)c(N(CC(=O)Nc2cccnc2)S(=O)(=O)c2ccccc2C(F)(F)F)c1 [SW202944]
activation at […] [1, 21]: 131%
activation at […] [1, 22]: 94.6%
activation at […] [2, 23]: 32.5%
activation at […] [2, 24]: 15.8%
activation at […] [3, 25]: -0.95%
activation at […] [3, 26]: -3.73%

COc1ccc(OC)c(N(CC(=O)Nc2cccnc2)S(=O)(=O)c2ccc(C(C)=O)cc2)c1 [SW202950]
activation at […] [1, 21]: -6.56%
activation at […] [1, 22]: 12.9%
activation at […] [2, 23]: -2.7%
activation at […] [2, 24]: 10.7%
activation at […] [3, 25]: 12.6%
activation at […] [3, 26]: 23.9%

COc1ccc(N(CC(=O)Nc2cccnc2)S(=O)(=O)c2ccccc2)c(OC)c1 [310875−38−8]
activation at […] [1, 16]: 64.1%
activation at […] [1, 17]: 148%
activation at […] [2, 18]: 27.7%
activation at […] [2, 19]: 102%
activation at […] [3, 20]: -8.72%

COc1ccc(OC)c(N(CC(=O)Nc2cccnc2)S(=O)(=O)c2ccccc2C#N)c1 [SW202945]
activation at […] [1, 21]: 34%
activation at […] [1, 22]: 127%
activation at […] [2, 23]: 45.7%
activation at […] [2, 24]: 135%
activation at […] [3, 25]: 28.5%
activation at […] [3, 26]: 90%

O=C(CN(c1ccc(F)cc1)S(=O)(=O)c1ccccc1)Nc1cccnc1 [compound 414177]
activation at […] [1, 10]: -2.8%
activation at […] [1, 11]: -5.73%
activation at […] [2, 12]: 9.51%
activation at […] [2, 13]: -0.62%
activation at […] [3, 14]: 10.6%
activation at […] [3, 15]: 7.72%

COc1ccc(OC)c(N(CC(=O)Nc2cncc(C)c2)S(=O)(=O)c2ccccc2)c1 [SW202974]
activation at […] [1, 21]: 59.9%
activation at […] [1, 22]: 179%
activation at […] [2, 23]: -8.77%
activation at […] [2, 24]: 34.8%
activation at […] [3, 25]: -9.04%
activation at […] [3, 26]: 35.9%

CS(=O)(=O)c1sc2nc(-c3cccs3)cc(-c3ccccc3)c2c1N [SW033290, 2-(methylsulfonyl)-4-phenyl-6-(thiophen-2-yl)thieno[2,3-b]pyridin-3-amine]
activation at […] [1, 4]: 30.9%
activation at […] [1, 5]: 17.7%
activation at […] [2, 6]: -0.24%
activation at […] [2, 7]: -6.58%
activation at […] [3, 8]: -34.3%
activation at […] [3, 9]: -25.4%

COc1ccc(OC)c(N(CC(=O)Nc2ccc(Br)cc2F)S(=O)(=O)c2ccc(C)cc2)c1 [compound 1004292]
activation at […] [1, 10]: 23.5%
activation at […] [1, 11]: 21.2%
activation at […] [2, 12]: 20.3%
activation at […] [2, 13]: 0.14%
activation at […] [3, 14]: 0.88%
activation at […] [3, 15]: -0.21%

COc1ccc(N(CC(=O)Nc2cccc(Cl)c2)S(=O)(=O)c2ccc(OC)c(OC)c2)cc1 [compound 408961]
activation at […] [1, 10]: 11.7%
activation at […] [1, 11]: 17.6%
activation at […] [2, 12]: 2.46%
activation at […] [2, 13]: -4.51%
activation at […] [3, 14]: -12.4%
activation at […] [3, 15]: 0.56%

COc1ccc(N(CC(=O)Nc2ccc(Br)cc2)S(=O)(=O)c2ccccc2)c(OC)c1 [compound 785161]
activation at […] [1, 10]: 56.7%
activation at […] [1, 11]: -52.5%
activation at […] [2, 12]: 10.7%
activation at […] [2, 13]: -41.9%
activation at […] [3, 14]: 0.54%
activation at […] [3, 15]: 3.48%
